These results are taken from ChEMBL document CHEMBL1201862, “PubChem BioAssay data set” (2004).

Activity calls are given as the source filed them. Bounds are passed on as bounds.

Experiment [1] relates to Candida albicans. The experiment can be described thus: C. albicans growth inhibition with fluconazole – CaCi-2 strain, Alamar Blue, dry powder, set 4, dose response (AID 488943). It counts as functional, organism-based. (Alamar Blue is a resazurin reagent that responds to reducing activity.)
For experiment [2], the system named is Candida albicans. The experiment can be described thus: Candida growth effect without fluconazole – C. albicans CaCi-2, dry powder, counter-screen for antifungal drug resistance project, dose response (AID 488802). It counts as functional, organism-based.
Experiment [3] relates to Candida albicans. The experiment can be described thus: antifungal activity against resistant Candida strain – CaCi-8, fluconazole, Alamar Blue, dry powder, dose response (AID 488807). It counts as functional, organism-based.
Experiment [4] concerns Candida albicans. The experiment can be described thus: fluconazole-resistant Candida strain growth inhibitors – CaCi-8 strain, dry powder, set 4, dose response (AID 488950). It counts as functional, organism-based.
Experiment [5] concerns the target G-protein coupled receptor 55 (Homo sapiens, UniProt Q9Y2T6). The experiment can be described thus: selective activators of receptor GPR55 – imaging, U2OS cells, beta-arrestin-GFP redistribution, primary screen (AID 1961). It counts as functional.
The next experiment concerns the target T1, Hexokinase HKDC1 (Homo sapiens, UniProt Q2TB90).
T1 sequence (Q2TB90 whole entry): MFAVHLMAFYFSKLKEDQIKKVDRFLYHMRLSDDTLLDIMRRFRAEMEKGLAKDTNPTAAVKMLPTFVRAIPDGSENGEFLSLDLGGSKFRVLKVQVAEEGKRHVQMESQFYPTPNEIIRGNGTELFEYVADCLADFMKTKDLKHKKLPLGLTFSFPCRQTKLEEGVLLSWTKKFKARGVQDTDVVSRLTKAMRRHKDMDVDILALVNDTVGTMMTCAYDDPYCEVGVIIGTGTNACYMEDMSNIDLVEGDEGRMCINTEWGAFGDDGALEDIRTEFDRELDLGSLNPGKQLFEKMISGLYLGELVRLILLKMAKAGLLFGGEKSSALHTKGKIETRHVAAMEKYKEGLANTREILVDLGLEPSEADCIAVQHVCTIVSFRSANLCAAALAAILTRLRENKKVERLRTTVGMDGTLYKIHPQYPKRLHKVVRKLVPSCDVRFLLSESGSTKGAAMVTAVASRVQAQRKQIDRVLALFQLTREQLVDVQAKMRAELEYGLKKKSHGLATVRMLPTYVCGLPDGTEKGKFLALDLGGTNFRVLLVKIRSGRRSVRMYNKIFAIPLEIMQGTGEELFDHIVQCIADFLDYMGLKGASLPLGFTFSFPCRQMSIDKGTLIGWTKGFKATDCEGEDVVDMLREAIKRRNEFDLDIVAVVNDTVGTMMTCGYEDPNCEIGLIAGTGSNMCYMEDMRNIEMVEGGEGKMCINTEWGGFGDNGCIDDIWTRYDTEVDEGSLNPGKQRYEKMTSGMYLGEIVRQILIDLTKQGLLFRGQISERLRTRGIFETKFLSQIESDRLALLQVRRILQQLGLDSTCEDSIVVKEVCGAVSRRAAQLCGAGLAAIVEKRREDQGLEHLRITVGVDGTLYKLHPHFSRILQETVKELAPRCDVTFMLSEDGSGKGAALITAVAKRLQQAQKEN
The experiment can be described thus: SAR analysis of small molecule inhibitors of hexokinase domain containing I (HKDC1). [Related pubchem assays (depositor defined):AID493160, AID493190]. It counts as functional.

The target in the next experiment is Hexokinase-1 (Homo sapiens, UniProt P19367). The experiment can be described thus: SAR analysis of small molecule inhibitors of hexokinase domain containing I (HKDC1) in the hexokinase 1 selectivity assay. [Related pubchem assays (depositor defined):AID493160, AID493190]. It counts as functional.
Experiment [6] has as its target Polyadenylate-binding protein 1 (Homo sapiens, UniProt P11940). The experiment can be described thus: blockers of PABP interaction with poly(A) – biochemical, fluorescence polarization, […] (AID 2014).
Experiment [7] addresses Eukaryotic translation initiation factor 4H (Homo sapiens, UniProt Q15056). The experiment can be described thus: eIF4H binding inhibition – biochemical, uHTS, fluorescence polarization, translation initiation inhibitor project, primary screen (AID 2012). In general terms: In fluorescence polarisation assays a small probe gives low polarisation when free and higher when bound to something large.

Experiment [8] has as its target T2, Dual specificity protein phosphatase 6 (Rattus norvegicus, UniProt Q64346).
T2 sequence (Q64346 whole entry): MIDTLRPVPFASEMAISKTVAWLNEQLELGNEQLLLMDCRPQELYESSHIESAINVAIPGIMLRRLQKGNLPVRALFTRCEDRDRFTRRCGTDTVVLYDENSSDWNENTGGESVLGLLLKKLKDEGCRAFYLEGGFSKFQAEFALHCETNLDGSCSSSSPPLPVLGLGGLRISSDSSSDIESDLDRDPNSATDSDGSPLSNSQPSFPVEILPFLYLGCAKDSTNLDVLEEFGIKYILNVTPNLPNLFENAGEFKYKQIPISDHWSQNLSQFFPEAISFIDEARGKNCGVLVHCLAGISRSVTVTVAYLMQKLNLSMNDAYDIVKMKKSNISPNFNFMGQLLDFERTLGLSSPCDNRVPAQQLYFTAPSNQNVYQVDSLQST
The experiment can be described thus: inhibition of rat DUSP6 enzyme activity – biochemical, in vitro, primary screen (AID 425).

The target of experiment [9] is Eukaryotic translation initiation factor 4E (Mus musculus, UniProt P63073). The experiment can be described thus: blockers of eIF4G binding by eIF4E – biochemical, TR-FRET, dose response (AID 855).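 Further: potency for disrupting eIF4E binding to eIF4GI seen as loss of FRET.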 Type of experiment: functional. For orientation: In TR-FRET formats the signal depends on donor and acceptor labels being close together.
Eukaryotic translation initiation factor 4E, sequence (P63073 whole entry): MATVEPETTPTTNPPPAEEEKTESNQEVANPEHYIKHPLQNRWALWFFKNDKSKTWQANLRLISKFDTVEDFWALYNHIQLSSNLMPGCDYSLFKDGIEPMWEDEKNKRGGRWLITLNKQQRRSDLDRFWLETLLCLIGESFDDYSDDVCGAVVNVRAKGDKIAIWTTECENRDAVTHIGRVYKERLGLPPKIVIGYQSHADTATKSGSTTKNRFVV
Experiment [10] has as its target T3, Voltage-gated N-type calcium channel alpha-1B subunit/Amyloid beta A4 precursor protein-binding family A member 1 (Homo sapiens, UniProt Q00975+Q02410). It counts as protein assay.
The target of experiment [11] is T4, Dual specificity protein phosphatase 3 (Homo sapiens, UniProt P51452). The experiment can be described thus: VHR1 phosphatase inhibitors, primary screen, biochemical, absorbance, uHTS (AID 1654).
T4 sequence (P51452 whole entry): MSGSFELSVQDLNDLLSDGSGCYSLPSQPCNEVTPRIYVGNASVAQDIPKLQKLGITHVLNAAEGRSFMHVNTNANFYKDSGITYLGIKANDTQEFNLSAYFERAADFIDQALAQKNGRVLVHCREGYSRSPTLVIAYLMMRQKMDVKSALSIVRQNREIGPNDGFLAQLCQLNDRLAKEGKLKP
For experiment [12], the target named is T5, Apoptotic protease-activating factor 1 (Homo sapiens, UniProt O14727).
T5 sequence (O14727 whole entry): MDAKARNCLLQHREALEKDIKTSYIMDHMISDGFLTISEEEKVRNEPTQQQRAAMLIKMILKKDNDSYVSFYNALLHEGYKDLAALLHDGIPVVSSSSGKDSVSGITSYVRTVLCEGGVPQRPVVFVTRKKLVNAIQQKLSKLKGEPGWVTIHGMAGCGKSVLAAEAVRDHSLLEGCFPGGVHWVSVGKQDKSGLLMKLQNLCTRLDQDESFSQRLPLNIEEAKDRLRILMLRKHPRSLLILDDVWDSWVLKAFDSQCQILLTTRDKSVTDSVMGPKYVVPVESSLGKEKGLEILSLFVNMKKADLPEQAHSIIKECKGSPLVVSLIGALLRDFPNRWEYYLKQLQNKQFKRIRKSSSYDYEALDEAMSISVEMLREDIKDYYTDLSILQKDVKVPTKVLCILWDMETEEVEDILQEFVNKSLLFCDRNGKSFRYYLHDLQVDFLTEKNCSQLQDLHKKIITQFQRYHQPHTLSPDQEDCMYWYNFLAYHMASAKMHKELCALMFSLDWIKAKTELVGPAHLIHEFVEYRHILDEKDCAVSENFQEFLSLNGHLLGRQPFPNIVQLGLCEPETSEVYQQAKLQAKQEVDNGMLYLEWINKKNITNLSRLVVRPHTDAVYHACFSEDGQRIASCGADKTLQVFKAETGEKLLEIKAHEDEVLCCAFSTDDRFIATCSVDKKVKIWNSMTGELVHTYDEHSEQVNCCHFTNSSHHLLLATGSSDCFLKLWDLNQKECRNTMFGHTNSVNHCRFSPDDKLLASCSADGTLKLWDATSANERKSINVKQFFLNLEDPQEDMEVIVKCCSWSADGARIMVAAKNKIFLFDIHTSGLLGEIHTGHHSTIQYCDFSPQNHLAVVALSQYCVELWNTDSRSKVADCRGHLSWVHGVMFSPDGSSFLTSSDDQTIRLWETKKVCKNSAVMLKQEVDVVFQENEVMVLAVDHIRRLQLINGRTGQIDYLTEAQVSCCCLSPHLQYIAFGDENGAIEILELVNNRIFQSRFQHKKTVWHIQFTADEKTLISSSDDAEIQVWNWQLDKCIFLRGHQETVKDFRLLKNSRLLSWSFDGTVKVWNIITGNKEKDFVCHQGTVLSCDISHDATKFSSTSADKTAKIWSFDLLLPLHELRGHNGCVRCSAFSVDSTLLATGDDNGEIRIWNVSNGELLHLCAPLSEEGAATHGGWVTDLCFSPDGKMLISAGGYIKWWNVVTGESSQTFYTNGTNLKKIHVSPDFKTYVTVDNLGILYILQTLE
The experiment can be described thus: activation of Apaf-1 mediated apoptosis – fluorescent, uHTS hits, dose response (AID 588554). It counts as functional.

For experiment [13], the target named is T6, Type-1 angiotensin II receptor (Homo sapiens, UniProt P30556).
T6 sequence (P30556 whole entry): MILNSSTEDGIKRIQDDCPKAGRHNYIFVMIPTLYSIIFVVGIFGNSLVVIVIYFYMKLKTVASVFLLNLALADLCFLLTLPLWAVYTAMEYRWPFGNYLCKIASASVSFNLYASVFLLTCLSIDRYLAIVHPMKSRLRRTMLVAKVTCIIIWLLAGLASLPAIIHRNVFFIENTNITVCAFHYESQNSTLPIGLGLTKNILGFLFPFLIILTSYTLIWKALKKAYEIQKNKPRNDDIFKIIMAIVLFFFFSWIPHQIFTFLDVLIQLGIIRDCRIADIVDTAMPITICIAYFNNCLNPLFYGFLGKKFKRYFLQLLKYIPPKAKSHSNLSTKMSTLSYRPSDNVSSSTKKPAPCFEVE
The experiment can be described thus: antagonism of angiotensin II type 1 receptor – cell-based, uHTS hits, selectivity assay for APJ receptor antagonist project, dose response (AID 463214).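 Further: antagonist potency against angiotensin II stimulated AT1 response.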 It counts as functional.

The target in a further experiment is Beta-galactosidase (Escherichia coli, UniProt Q8VNN2). The experiment can be described thus: PubChem AID 485352. Type of experiment: functional.
Beta-galactosidase, sequence (Q8VNN2 whole entry): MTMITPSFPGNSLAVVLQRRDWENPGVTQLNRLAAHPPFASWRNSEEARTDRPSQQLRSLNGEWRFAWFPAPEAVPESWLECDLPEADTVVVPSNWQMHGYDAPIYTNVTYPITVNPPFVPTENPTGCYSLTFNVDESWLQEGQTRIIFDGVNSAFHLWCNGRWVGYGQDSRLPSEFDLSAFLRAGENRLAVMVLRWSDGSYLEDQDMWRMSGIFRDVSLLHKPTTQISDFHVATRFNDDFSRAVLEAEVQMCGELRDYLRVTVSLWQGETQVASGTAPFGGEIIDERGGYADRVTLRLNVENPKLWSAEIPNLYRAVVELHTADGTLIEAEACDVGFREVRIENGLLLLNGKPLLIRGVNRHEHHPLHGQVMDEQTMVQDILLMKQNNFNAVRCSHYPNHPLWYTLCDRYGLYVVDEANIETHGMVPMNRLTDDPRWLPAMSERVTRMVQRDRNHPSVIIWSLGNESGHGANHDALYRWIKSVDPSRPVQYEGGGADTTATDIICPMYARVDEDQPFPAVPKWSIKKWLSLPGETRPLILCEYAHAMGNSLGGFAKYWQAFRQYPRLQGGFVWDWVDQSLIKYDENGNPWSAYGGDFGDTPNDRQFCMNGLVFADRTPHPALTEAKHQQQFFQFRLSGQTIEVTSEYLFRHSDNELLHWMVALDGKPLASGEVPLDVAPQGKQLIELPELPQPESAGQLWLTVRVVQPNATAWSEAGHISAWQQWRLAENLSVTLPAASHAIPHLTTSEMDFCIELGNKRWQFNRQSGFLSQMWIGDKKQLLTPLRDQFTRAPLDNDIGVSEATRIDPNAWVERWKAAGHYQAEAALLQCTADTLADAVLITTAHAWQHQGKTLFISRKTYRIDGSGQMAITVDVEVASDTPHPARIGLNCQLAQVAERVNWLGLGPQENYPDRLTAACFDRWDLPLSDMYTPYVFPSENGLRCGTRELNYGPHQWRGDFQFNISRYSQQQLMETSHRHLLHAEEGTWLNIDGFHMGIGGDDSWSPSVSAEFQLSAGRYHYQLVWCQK
The target of experiment [14] is T4, Dual specificity protein phosphatase 3. The experiment can be described thus: VHR1 phosphatase inhibitors, biochemical (AID 1878).
In experiment [15] the target is T3, Voltage-gated N-type calcium channel alpha-1B subunit/Amyloid beta A4 precursor protein-binding family A member 1. It counts as protein assay. This is another data set of the same source.
Experiment [16] concerns the target Beta-2 adrenergic receptor (Homo sapiens, UniProt P07550). The experiment can be described thus: ADRB2 activation measured by internalization – cell-based, FAP fluorogen, flow cytometry, cherry pick 1, dose response (AID 588763). Type of experiment: functional.
Another experiment relates to Jurkat. The experiment can be described thus: SAR Analysis of small molecule inhibitors of […] specific antigen receptor-induced NF-kB activation in a Jurkat cell line using a luminescence assay - Set 3. [Related pubchem assays (depositor defined):AID435022, AID435025, AID465]. It counts as functional, cell-based. The following applies: Homo sapiens.
In experiment [17] the test system is HEK293. The experiment can be described thus: HEK293T cell viability loss, resazurin readout – resazurin fluorescence, cytotoxicity control for NF-kB activator project, SAR follow-up (AID 493251). It counts as functional, cell-based. As to conditions: Homo sapiens.
In experiment [18] the test system is HEK293. The experiment can be described thus: SAR Analysis of small molecule inhibitors of B-cell specific antigen receptor-induced NF-kB activation in a HEK-293T cell line using a luminescence assay - Set 2. [Related pubchem assays (depositor defined):AID435022, AID435025, AID489021]. Type of experiment: functional, cell-based. As to conditions: Homo sapiens.

T3 sequence (Q00975 whole entry): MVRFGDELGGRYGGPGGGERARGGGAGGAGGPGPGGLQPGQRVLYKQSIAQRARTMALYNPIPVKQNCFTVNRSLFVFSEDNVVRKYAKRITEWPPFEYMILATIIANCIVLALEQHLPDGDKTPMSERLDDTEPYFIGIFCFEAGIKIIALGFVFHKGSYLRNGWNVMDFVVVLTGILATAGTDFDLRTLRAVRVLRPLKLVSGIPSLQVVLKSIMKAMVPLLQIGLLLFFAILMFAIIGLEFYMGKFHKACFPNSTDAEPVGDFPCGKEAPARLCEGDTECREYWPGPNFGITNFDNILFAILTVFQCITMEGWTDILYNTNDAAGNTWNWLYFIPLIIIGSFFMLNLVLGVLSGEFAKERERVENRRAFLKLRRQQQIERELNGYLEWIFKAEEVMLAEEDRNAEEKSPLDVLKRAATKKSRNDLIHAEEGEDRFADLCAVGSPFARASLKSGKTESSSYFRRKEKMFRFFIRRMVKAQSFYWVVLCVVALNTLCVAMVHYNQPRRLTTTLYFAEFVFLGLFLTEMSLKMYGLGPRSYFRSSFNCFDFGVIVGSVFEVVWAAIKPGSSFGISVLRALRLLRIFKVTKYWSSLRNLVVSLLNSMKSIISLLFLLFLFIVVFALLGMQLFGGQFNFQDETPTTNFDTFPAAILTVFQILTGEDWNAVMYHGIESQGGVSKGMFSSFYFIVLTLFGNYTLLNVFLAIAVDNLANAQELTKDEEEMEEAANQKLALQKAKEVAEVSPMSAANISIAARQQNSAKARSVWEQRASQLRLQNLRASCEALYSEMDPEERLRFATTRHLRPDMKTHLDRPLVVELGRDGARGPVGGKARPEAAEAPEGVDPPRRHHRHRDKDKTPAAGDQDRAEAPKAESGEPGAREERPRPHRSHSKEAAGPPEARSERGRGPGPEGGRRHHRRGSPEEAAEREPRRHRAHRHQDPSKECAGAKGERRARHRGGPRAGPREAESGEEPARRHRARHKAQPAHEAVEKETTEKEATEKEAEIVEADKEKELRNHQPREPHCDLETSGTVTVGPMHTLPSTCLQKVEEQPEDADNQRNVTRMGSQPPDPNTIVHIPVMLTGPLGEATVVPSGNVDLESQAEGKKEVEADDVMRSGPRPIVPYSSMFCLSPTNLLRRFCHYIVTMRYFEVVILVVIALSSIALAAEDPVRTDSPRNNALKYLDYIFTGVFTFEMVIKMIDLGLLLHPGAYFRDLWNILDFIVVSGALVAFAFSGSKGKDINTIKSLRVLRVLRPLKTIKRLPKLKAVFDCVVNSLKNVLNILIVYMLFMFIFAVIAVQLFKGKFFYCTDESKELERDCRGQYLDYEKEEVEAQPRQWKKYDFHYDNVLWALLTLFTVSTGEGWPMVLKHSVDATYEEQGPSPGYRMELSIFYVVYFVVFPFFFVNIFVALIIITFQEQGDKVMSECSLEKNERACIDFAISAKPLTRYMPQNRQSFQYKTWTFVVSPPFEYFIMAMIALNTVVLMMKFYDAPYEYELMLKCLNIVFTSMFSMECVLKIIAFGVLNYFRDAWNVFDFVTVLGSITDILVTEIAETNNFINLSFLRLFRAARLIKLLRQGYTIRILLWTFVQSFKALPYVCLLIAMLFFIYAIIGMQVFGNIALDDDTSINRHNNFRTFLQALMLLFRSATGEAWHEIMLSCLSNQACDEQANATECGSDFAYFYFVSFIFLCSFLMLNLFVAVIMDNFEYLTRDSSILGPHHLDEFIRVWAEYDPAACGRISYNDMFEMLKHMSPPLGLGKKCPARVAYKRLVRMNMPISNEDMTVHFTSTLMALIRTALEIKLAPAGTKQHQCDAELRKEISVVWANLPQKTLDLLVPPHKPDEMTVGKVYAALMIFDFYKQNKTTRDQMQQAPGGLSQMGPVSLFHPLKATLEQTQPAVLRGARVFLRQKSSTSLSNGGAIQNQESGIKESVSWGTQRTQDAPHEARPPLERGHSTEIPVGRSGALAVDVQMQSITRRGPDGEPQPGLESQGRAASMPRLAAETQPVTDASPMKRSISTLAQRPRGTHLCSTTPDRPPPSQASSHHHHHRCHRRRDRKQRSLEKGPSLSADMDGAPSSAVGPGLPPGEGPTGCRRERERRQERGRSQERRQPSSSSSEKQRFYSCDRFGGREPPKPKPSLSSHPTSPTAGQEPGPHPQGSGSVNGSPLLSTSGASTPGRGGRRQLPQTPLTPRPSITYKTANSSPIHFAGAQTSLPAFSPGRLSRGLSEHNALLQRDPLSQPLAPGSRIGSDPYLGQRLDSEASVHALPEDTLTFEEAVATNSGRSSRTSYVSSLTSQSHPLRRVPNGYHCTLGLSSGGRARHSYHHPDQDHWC
T3 sequence (Q02410 whole entry): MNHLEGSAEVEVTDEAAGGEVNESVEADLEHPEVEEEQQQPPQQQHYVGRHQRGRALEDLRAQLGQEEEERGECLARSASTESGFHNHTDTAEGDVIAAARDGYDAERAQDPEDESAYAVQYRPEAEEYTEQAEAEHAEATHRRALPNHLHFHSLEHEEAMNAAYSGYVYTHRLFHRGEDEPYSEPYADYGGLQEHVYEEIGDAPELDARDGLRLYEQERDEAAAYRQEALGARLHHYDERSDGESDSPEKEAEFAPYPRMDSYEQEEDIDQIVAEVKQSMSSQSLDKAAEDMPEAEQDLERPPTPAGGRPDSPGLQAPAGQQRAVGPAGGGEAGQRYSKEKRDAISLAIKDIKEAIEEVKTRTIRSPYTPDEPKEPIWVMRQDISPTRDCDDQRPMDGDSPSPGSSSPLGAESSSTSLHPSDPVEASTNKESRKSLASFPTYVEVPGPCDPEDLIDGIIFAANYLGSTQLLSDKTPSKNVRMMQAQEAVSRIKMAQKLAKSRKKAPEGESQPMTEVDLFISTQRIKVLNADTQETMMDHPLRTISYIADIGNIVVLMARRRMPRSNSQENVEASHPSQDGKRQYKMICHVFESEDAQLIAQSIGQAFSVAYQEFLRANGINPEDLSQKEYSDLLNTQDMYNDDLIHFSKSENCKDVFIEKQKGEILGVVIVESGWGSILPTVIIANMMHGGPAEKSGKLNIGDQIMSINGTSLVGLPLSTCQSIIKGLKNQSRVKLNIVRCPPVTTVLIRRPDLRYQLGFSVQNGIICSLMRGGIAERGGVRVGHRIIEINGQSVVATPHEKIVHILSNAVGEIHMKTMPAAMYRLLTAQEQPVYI
G-protein coupled receptor 55, sequence (Q9Y2T6 whole entry): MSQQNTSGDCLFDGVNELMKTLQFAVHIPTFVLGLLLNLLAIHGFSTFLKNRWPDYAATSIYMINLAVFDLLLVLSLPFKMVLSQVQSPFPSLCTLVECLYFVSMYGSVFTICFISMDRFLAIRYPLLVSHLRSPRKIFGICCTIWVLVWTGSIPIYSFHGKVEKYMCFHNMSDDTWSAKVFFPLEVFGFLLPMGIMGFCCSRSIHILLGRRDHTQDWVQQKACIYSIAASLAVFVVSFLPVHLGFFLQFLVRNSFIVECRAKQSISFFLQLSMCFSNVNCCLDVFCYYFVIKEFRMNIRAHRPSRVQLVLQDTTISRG

Broadly, the AC50 is the concentration giving half of the maximal activity seen. As to `Cc1ccc(C(=O)N2CCN(c3ccnc4cc(Cl)ccc34)CC2)cc1`, the AC50 was 1.78 µM (active) in the experiment with Candida albicans [1], 31.8 µM (active) in the experiment on Candida albicans [2], 7.07 µM (active) in the experiment on Candida albicans [3] and 1.33 µM (active) in the experiment on Candida albicans [4].
By EC50 is commonly meant the midpoint of the concentration-response curve. The term IC50 denotes the concentration that gives 50% inhibition. As to `Cc1ccc(S(=O)(=O)N2CCOCC2)cc1NC(=O)CSc1nnc2cc(C)c3ccccc3n12`, the EC50 in [5] is 17.4 µM (inactive). The IC50 on Hexokinase HKDC1 is 43.2 µM (inactive); at Hexokinase-1, 50.3 µM (inactive).
For `COc1cc(/C=C2\SC(=O)N(c3cccc(Cl)c3)C2=O)cc([N+](=O)[O-])c1O`, the IC50 in experiment [6] was > 100 µM (inactive); in experiment [7], 4.99 µM (active); in [8], > 158 µM (not active); in experiment [9] it was 21.9 µM (active); in experiment [10], > 50 µM (inactive); in [11], 3.03 µM (active). For the same compound, the IC50 in [13] is 27.3 µM (not active); in experiment [14] it was 2.21 µM (active); in [15], 3.5 µM (active). Besides, the figures for the EC50 (in [12]; at Beta-galactosidase) were 5.8 µM (active) and 30.8 µM (active), respectively.
`CCCCN(C(=O)c1ccc(NC(=O)C(C)C)cc1)c1ccccc1`: the EC50 in experiment [16] was 0.049 µM (active).
On to `COc1ccccc1NC(=O)CCc1nc(-c2ccc(C(C)(C)C)cc2)no1`, for which the IC50 with Jurkat is 0.665 µM (active); in the experiment on HEK293 [17], 56 µM (inactive); in the experiment with HEK293 [18], 0.44 µM (active).
